Measurements from US20080242544A1, “Phytoactive Composition” (priority 2004, published 2008).

tested on: Field Pansy; design: species or system Viola avensis; conditions: in vivo

With `Cc1cc(Cl)ccc1OCC(=O)O` [MCPA, (4-chloro-2-methylphenoxy)acetic acid] the “plant vigour of Pansy versus untreated” value was “more vigorous plants than untreated only plants”.

tested on: not given; conditions: Table 1, carriers; cited from earlier work

In the case of `C[C@@H]1CC[C@@H](C(C)(C)S)C(=O)C1` [(1R,4R)-8-mercapto-3-p-menthanone], the “logP(o/w)” value is given as 2.9.

same assay, conditions: Table 4, no pH given; cited from earlier work

Point of comparison: `CCc1cccc(C)c1N(C(=O)CCl)C(C)COC` (stereo not shown) [Metolachlor], “Log P” value 3.00. Against it:
- CCN(C(=O)n1nnn(-c2ccccc2Cl)c1=O)C1CCCCC1 [Fentrazamide] — higher, 3.60
- CS(=O)(=O)c1ccc(C(=O)C2C(=O)CCCC2=O)c([N+](=O)[O-])c1 [Mesotrione] — lower, 2.2

same assay, conditions: Table 5, no pH given; cited from earlier work

Point of comparison: `N#Cc1cc(Br)c(O)c(Br)c1` [bromoxynil], “Log Pow” value 2.8. Against it:
- CCc1cccc(C)c1N(C(=O)CCl)C(C)COC (stereo not shown) [Metolachlor] — within 0.2 log units, 2.9
- CCc1cccc(C)c1N(C(=O)CCl)[C@@H](C)COC [S-metolachlor] — higher, 3.1
- O=C(O)c1cc(Oc2ccc(C(F)(F)F)cc2Cl)ccc1[N+](=O)[O-] [acifluorfen] — higher, 4.2
- C#CCOc1cc(-n2nc3n(c2=O)CCCC3)c(Cl)cc1Cl [azafenidin] — within 0.2 log units, 2.7
- Cc1ccc(C(=O)COc2c(C(=O)c3ccc(Cl)c(C)c3Cl)c(C)nn2C)cc1 [benzofenap] — higher, 4.7
- COC(=O)c1cc(Oc2ccc(Cl)cc2Cl)ccc1[N+](=O)[O-] [bifenox] — higher, 4.5
- Cc1ccc(NC(=O)N(C)C)cc1Cl [chlorotoluron] — lower, 2.5
- COC(=O)c1c(Cl)c(Cl)c(C(=O)OC)c(Cl)c1Cl [chlorthal-dimethyl] — higher, 4.3
- CCOc1nc(F)cc2nc(S(=O)(=O)Nc3c(Cl)cccc3C(=O)OC)nn12 [cloransulam-methyl] — lower, 1.2
- CCCC(=NOCC)C1=C(O)CC(C2CCCSC2)CC1=O (stereo not shown) [cycloxydim] — lower, 1.4
- CCOC1Oc2ccc(OS(C)(=O)=O)cc2C1(C)C (stereo not shown) [ethofumesate] — within 0.2 log units, 2.7
- CN(C)C(=O)Nc1ccccc1 [fenuron] — lower, 1.4
- C[C@@H](Oc1ccc(Oc2ccc(C(F)(F)F)cn2)cc1)C(=O)O [fluazifop-P] — higher, 3.1
- CCCCOC(=O)C(C)Oc1ccc(Oc2ccc(C(F)(F)F)cn2)cc1 (stereo not shown) [fluazifop-butyl] — higher, 4.5
- CCCCOC(=O)[C@@H](C)Oc1ccc(Oc2ccc(C(F)(F)F)cn2)cc1 [fluazifop-p-butyl] — higher, 4.5
- C#CCN1C(=O)COc2cc(F)c(N3C(=O)C4=C(CCCC4)C3=O)cc21 [flumioxazin] — lower, 1.3
- COC(=O)[C@@H](C)Oc1ccc(Oc2ncc(C(F)(F)F)cc2Cl)cc1 [haloxyfop-P-methyl] — higher, 4
- CCOCCOC(=O)C(C)Oc1ccc(Oc2ncc(C(F)(F)F)cc2Cl)cc1 (stereo not shown) [haloxyfop-etotyl] — higher, 4.3
- CC(Oc1ccc(Oc2ncc(C(F)(F)F)cc2Cl)cc1)C(=O)O (stereo not shown) [haloxyfop] — higher, 3.4
- CC(C)C1(C)N=C(c2nc3ccccc3cc2C(=O)O)NC1=O (stereo not shown) [imazaquin] — within 0.2 log units, 2.9
- CON(C)C(=O)Nc1ccc(Cl)c(Cl)c1 [linuron] — higher, 3
- CC(=O)Nc1cc(NS(=O)(=O)C(F)(F)F)c(C)cc1C [mefluidide] — lower, 2
- Cc1nnc(-c2ccccc2)c(=O)n1N [metamitron] — lower, 0.8
- Cc1cccc(C)c1N(Cn1cccn1)C(=O)CCl [metazachlor] — lower, 2.1
- CON(C)C(=O)Nc1ccc(Oc2ccc3c(c2)OC(C)(OC)CC3(C)C)cc1 (stereo not shown) [metobenzuron] — higher, 6.3
- COc1ccc(NC(=O)N(C)C)cc1Cl [metoxuron] — lower, 1.6
- CCSC(=O)N1CCCCCC1 [molinate] — within 0.2 log units, 2.9
- CNc1cnn(-c2cccc(C(F)(F)F)c2)c(=O)c1Cl [norflurazon] — lower, 2.5
- CCOc1cc(Oc2ccc(C(F)(F)F)cc2Cl)ccc1[N+](=O)[O-] [oxyfluorfen] — higher, 4.5
- CCC(CC)Nc1c([N+](=O)[O-])cc(C)c(C)c1[N+](=O)[O-] [pendimethalin] — higher, 5.2
- CCCOCCN(C(=O)CCl)c1c(CC)cccc1CC [pretilachlor] — higher, 4.1
- CCC(=O)Nc1ccc(Cl)c(Cl)c1 [propanil] — higher, 3.3
- CCc1cccc(C)c1N(COC(C)C)C(=O)CCl [propisochlor] — higher, 3.5
- C#CC(C)(C)NC(=O)c1cc(Cl)cc(Cl)c1 [propyzamide] — higher, 3.2
- CCOC(=O)c1cnn(C)c1S(=O)(=O)NC(=O)Nc1nc(OC)cc(OC)n1 [pyrazosulfuron-ethyl] — lower, 1.3
- COc1cc(OC)nc(Oc2cccc(Oc3nc(OC)cc(OC)n3)c2C(=O)ON=C(c2ccccc2)c2ccccc2)n1 [pyribenzoxim] — higher, 3
- CCCCCCCCSC(=O)Oc1cc(Cl)nnc1-c1ccccc1 [pyridate] — higher, 4
- CCNc1nc(Cl)nc(NCC)n1 [simazine] — lower, 2.1
- CCNc1nc(NC(C)(C)C)nc(OC)n1 [terbumeton] — higher, 3
- CCNc1nc(Cl)nc(NC(C)(C)C)n1 [terbuthylazine] — higher, 3.2
- COc1ccsc1CN(C(=O)CCl)c1c(C)cccc1C [thenylchlor] — higher, 3.5
- CCCN(CCC)c1c([N+](=O)[O-])cc(C(F)(F)F)cc1[N+](=O)[O-] [trifluralin] — higher, 4.8

same assay, conditions: Table 5, pH 5; cited from earlier work

For `O=C(O)COc1nc(Cl)c(Cl)cc1Cl` [triclopyr], the “Log Pow” value is given as 0.4 (pH 5).

same assay, conditions: Table 5, pH 7; cited from earlier work

For `COC(=O)c1ccccc1S(=O)(=O)NC(=O)Nc1nc(OC(F)F)cc(OC(F)F)n1` [primisulfuron-methyl], the “Log Pow” value is given as 0.2 (pH 7).

same assay, conditions: Table 6; cited from earlier work

Point of comparison: `O=C(OCc1ccccc1)c1sc(Cl)nc1C(F)(F)F` [flurazole], logP 4.1. Against it:
- N#Cc1cc(Br)c(O)c(Br)c1 [bromoxynil] — lower, 2.8
- CCOC(=O)Cc1cccc2ccccc12 [ethyl 1-naphthylacetate] — lower, 3.8
- CNc1cnn(-c2cccc(C(F)(F)F)c2)c(=O)c1Cl [norflurazon] — lower, 2.45
- CCOc1cc(Oc2ccc(C(F)(F)F)cc2Cl)ccc1[N+](=O)[O-] [oxyfluorfen] — higher, 4.5
- CCC(CC)Nc1c([N+](=O)[O-])cc(C)c(C)c1[N+](=O)[O-] [pendimethalin] — higher, 5.2

same assay, conditions: pH 1; cited from earlier work

For `Cc1cc(Cl)ccc1OCC(=O)O` [MCPA, (4-chloro-2-methylphenoxy)acetic acid], the “Log Pow” value is given as 2.8 (pH 1).
In the case of `CS(=O)(=O)NC(=O)c1cc(Oc2ccc(C(F)(F)F)cc2Cl)ccc1[N+](=O)[O-]` [fomesafen], the “Log Pow” value is given as 2.9 (pH 1).

same assay, conditions: pH 2; cited from earlier work

For `CS(=O)(=O)c1cc(Cl)ccc1C(=O)c1cnoc1C1CC1` [Isoxachlortole], the “Log P” value is given as 2.76 (pH 2).

same assay, conditions: pH 3.9; cited from earlier work

For `COC(=O)Nc1cccc(OC(=O)Nc2cccc(C)c2)c1` [phenmedipham], the “Log Pow” value is listed as 3.6 (pH 3.9).

same assay, conditions: pH 5; cited from earlier work

In the case of `COC(=O)c1ccccc1S(=O)(=O)NC(=O)Nc1nc(C)cc(C)n1` [sulfometuron-methyl], the “Log Pow” value is listed as 1.2 (pH 5).

same assay, conditions: pH 7; cited from earlier work

For `CC(C)c1nn(C(=O)NC(C)(C)C)c(=O)n1N` [amicarbazone], the “Log P” value is listed as 1.23 (pH 7).
For `CCc1cnc(C2=NC(C)(C(C)C)C(=O)N2)c(C(=O)O)c1` (stereo not shown) [imazethapyr], the “Log P” value is given as 1.49 (pH 7).

same assay, conditions: pH 9; cited from earlier work

For `COc1cc(OC)n2nc(S(=O)(=O)Nc3c(Cl)ccc(C)c3Cl)nc2n1` [metosulam], the “Log Pow” value is given as 3.1 (pH 9).
